For series [1], the system named is MCL1 mRNA in SU-DHL-10 cells. Put plainly: In vitro washout, MCL1 mRNA qPCR, SU-DHL-10. In kind it is cell-based, human. Conditions: 4 h treatment then washout, for 16 to 48 hours after treatment. The method, then: Evaluation of the pharmacodynamic extent and duration of CDK9 inhibition were performed in vitro using the human DLBCL cell lines SU-DHL-4 and SU-DHL-10, harboring MYC amplification and MYC overexpression with P57T mutation, respectively. Cells were seeded 18 hours prior to treatment for 4 hours with one of three CDK9 inhibitors, enitociclib (0.25 and1 µmol/L), atuveciclib (1 µmol/L) or KB-0742 (1 µmol/L), cells were washed, and incubation continued until 48 hours posttreatment. Samples were collected before treatment (−4), immediately after treatment (0), and at 1, 2, 4, 8, 12, 16, 24, and 48 hours after washout for RNA sequencing (RNA-seq), qPCR, and Western blotting analyses. Total RNA was extracted from blood of patients and cell lines using RNeasy Plus Mini Kit (QIAGEN, #74136) and cDNA prepared with the Maxima First Strand cDNA Synthesis Kit for RT-PCR (Thermo Fisher Scientific, K1642) according to manufacturer's instructions. The integrity of purified total RNA was evaluated using an Agilent 2100 Bioanalyzer system and RNA 6000 Nano Kit (Agilent, #5067-1511). Differential gene expression analysis was performed (Fios Genomics) from RNA-seq data (Discovery Life Sciences). MYC and MCL1 mRNA levels were measured by qPCR in vitro and in vivo, using a Taqman qPCR system (Thermo Fisher Scientific), TaqMan Fast Universal PCR Master Mix (2X) no AmpErase (#4352042) and TaqMan probes for MYC (Hs00153408_m1) and MCL1 (Hs03043899_m1). RNA-seq data were analyzed using DESeq2 ([35]).

Series [2] deals with Mcl-1 protein in SU-DHL-10 tumors. Put plainly: Pharmacodynamics in SU-DHL-10 xenograft tumors, Mcl-1 protein. In kind it is in vivo, C.B-17 SCID mice. Conditions: single dose; within 4 to 8 hours postdose. The method, then:
The levels of p-Ser2, p-Ser5 and total RNA polymerase II, Myc, Mcl-1, cleaved PARP (cPARP), and cleaved Caspase 3 were assessed by Western blotting and quantified near-infrared detection and background corrected quantification of fluorescence intensity on an Odyssey Imaging System with IRDye secondary antibodies (LI-COR Biosciences). For quantification, the protein levels were normalized to GAPDH or HSP90, expressed as a ratio to DMSO or vehicle control at matched timepoints. The normalized relative protein levels of p-Ser2 were used for a treatment effect comparison by performing an ANOVA using PROC MIXED in SAS. The ANOVA model included treatment, timepoints and their interactions as fixed effects. The least square means (LSM), differences between the LSMs and associated P values were generated. The following primary antibodies were used: Rpb1 NTD (D8L4Y) rabbit antibody [Cell Signaling Technology (CST), #14958], anti-RNA polymerase II subunit B1 (phospho CTD Ser-2, clone 3E10) rat antibody (Merck, 04-1571-I), recombinant anti-c-MYC rabbit antibody (Y69; Abcam, #ab32072), MCL1 (D5V5L) rabbit antibody (CST, #39224), cleaved-PARP (Asp214) (E2T4K) mouse antibody (CST, #32563), HSP90 (C45G5) rabbit antibody (CST, #4877), and GAPDH mouse antibody (Zytomed Systems, #ZYT-RGM2-6C5). […]

The nature of series [3]: Clinical pharmacokinetics, plasma LC/MS-MS (NCT02635672). In kind it is in vivo, human. Conditions: for Cmax / half-life: human, plasma. The method, then: Fifteen patients with refractory or relapsed DH-DLBCL or other MYC+ NHL were treated with enitociclib (30 mg, 21-day cycle, once weekly x3) as a 30-minute intravenous infusion on study days 1, 8, and 15 (NCT02635672). Longitudinal gene expression levels were analyzed by RNA-seq, and enitociclib plasma concentrations were measured using LC/MS-MS. The clinical study protocol was approved by the Institutional Review Board of participating institutions and complied with the Declaration of Helsinki, current Good Clinical Practice guidelines, and local laws and regulations. Written informed consent was provided by all participants prior to the initiation of any study-specific procedure.
All pharmacokinetic parameters were calculated by noncompartmental methods as described previously ([36]) using WinNonlin v5.3 (Certara LP). Pharmacokinetic/pharmacodynamic modeling was performed using SAAM II v2.3.2 (The Epsilon Group). Pooled pharmacokinetic data from all patients [n = 15 for single dose, cycle 1 day 1 (C1D1) and n = 11 for multiple doses, cycle 1 day 15 (C1D15)] were characterized using a one-compartment model with intravenous dosing. Subsequently, the pharmacokinetic/pharmacodynamic relationship of enitociclib plasma concentrations to MCL1 and MYC mRNA change was characterized using an indirect response model ([37]) on pooled biomarker data where enitociclib concentrations inhibit the formation of MCL1 or MYC mRNA as described by the following equation: […]

Read-outs that look alike come from different tables or passages of the source.

The text below walks through data of publication PMC10634346 (Cancer Research Communications, 2023).

In the case of `COc1cc(F)ccc1-c1cc(Nc2cc(CS(C)(=N)=O)ccn2)ncc1F` (stereo not shown) [enitociclib], the “inhibition of MCL1 mRNA levels” value in series [1] is given as “approximately 75%”. The “Mcl-1 protein levels in tumors (in words)” value in series [2] is “robustly decreased”. Further, the Cmax was determined as 592 ng/mL in series [3] (intravenous, 22.5 mg, subject 3, dose lowered from 30 to 22.5 mg, not included in average, read-out: Multiple dose C max) and 1750 nM in series [3] (iv, 30 mg, patients, 30 mg i.v. once weekly, read-out: Cmax). In addition, the half-life in series [3] (intravenous, 22.5 mg, subject 3, dose lowered from 30 to 22.5 mg, not included in average, read-out: Multiple dose t1/2 (converted)) was 2.53 h; in series [3] (intravenous, 30 mg, patients treated with multiple doses, read-out: mean t1/2 (converted)), 5.56 h. Besides, the “unbound Cmax” value in series [3] (patients, 30 mg i.v. once weekly, Cmax x fu) stood at 117 nM.
